Reference: ChEMBL document CHEMBL1201862, “PubChem BioAssay data set” (2004)
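Growth conditions: 96-well plates. Treatment: test compound, 48 hours, 5 concentrations. Analysis: linear interpolation between bracketing concentrations; unreached endpoints set to highest concentration. Here, GI50 denotes the concentration required for 50% inhibition of growth.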 Calls of active or inactive are those of the source. No stated cut-off is given here; in the data, active = GI50 up to about 1.1 µM and inactive = higher.

What was measured:
Test in all cases: NCI anticancer screen, dose series, 48 h
786-0 = tested on: 786-0
A498 = tested on: A498
BT-549 = tested on: BT-549
HCC 2998 = tested on: HCC 2998
HCT-116 = tested on: HCT-116
HCT-15 = tested on: HCT-15
HOP-62 = tested on: HOP-62
Hs-578T = tested on: Hs-578T
M14 = tested on: M14
MCF7 = tested on: MCF7
MDA-MB-435 = tested on: MDA-MB-435
NCI-H23 = tested on: NCI-H23
NCI-H460 = tested on: NCI-H460
PC-3 = tested on: PC-3
SF-268 = tested on: SF-268
SK-MEL-2 = tested on: SK-MEL-2
SW-620 = tested on: SW-620
U-251 = tested on: U-251
UO-31 = tested on: UO-31
SNB-75 = tested on: SNB-75

## O=c1[nH]c2ccc(Cl)cc2c2oc(-c3ccccc3)nc12
786-0
  GI50: 16 µM (inactive)
A498
  GI50: 21.3 µM (inactive)
BT-549
  GI50: > 100 µM (inactive)
HCC 2998
  GI50: 26.3 µM (inactive)
HCT-116
  GI50: 16.4 µM (inactive)
HCT-15
  GI50: 51.6 µM
HOP-62
  GI50: 20.7 µM (inactive)
Hs-578T
  GI50: 15.7 µM (inactive)
M14
  GI50: 88.5 µM (inactive)
MCF7
  GI50: 6.07 µM (inactive)
MDA-MB-435
  GI50: 51.6 µM (inactive)
NCI-H23
  GI50: 25.2 µM (inactive)
NCI-H460
  GI50: 20 µM (inactive)
PC-3
  GI50: 29.9 µM (inactive)
SF-268
  GI50: 36 µM (inactive)
SK-MEL-2
  GI50: 17.8 µM (inactive)
SW-620
  GI50: 44.6 µM (inactive)
U-251
  GI50: 20.7 µM (inactive)
UO-31
  GI50: 22.1 µM (inactive)

## Cc1ccc(-c2c(C#N)c(-c3ccc(C)cc3)n(NS(=O)(=O)c3ccccc3)c(=O)c2C#N)cc1
786-0
  GI50: 54.1 µM (inactive)
A498
  GI50: 51.2 µM (inactive)
BT-549
  GI50: 25.4 µM (inactive)
HCC 2998
  GI50: 25.2 µM (inactive)
HCT-116
  GI50: 31.1 µM (inactive)
HCT-15
  GI50: 39.4 µM
HOP-62
  GI50: 49.2 µM (inactive)
Hs-578T
  GI50: > 100 µM (inactive)
M14
  GI50: 40.6 µM (inactive)
MCF7
  GI50: 24 µM (inactive)
MDA-MB-435
  GI50: 61.1 µM (inactive)
NCI-H460
  GI50: 40.9 µM (inactive)
PC-3
  GI50: 28.9 µM (inactive)
SF-268
  GI50: > 100 µM (inactive)
SK-MEL-2
  GI50: 57.4 µM (inactive)
SNB-75
  GI50: > 100 µM (inactive)
SW-620
  GI50: 42.4 µM (inactive)
U-251
  GI50: 49.9 µM (inactive)

## O=C(O)/C=C\C(=O)Nn1c(Cc2ccc(Cl)cc2)n[nH]c1=O
786-0
  GI50: > 100 µM (inactive)
A498
  GI50: > 100 µM (inactive)
BT-549
  GI50: > 100 µM (inactive)
HCC 2998
  GI50: > 100 µM (inactive)
HCT-116
  GI50: > 100 µM (inactive)
HCT-15
  GI50: > 100 µM
HOP-62
  GI50: > 100 µM (inactive)
Hs-578T
  GI50: > 100 µM (inactive)
M14
  GI50: > 100 µM (inactive)
MCF7
  GI50: > 100 µM (inactive)
MDA-MB-435
  GI50: > 100 µM (inactive)
NCI-H23
  GI50: > 100 µM (inactive)
NCI-H460
  GI50: > 100 µM (inactive)
PC-3
  GI50: > 100 µM (inactive)
SF-268
  GI50: > 100 µM (inactive)
SK-MEL-2
  GI50: > 100 µM (inactive)
U-251
  GI50: > 100 µM (inactive)

## N#Cc1[nH]c(=O)n(-c2ccc(Cl)cc2)c1N
786-0
  GI50: > 10 µM (inactive)
A498
  GI50: > 10 µM (inactive)
BT-549
  GI50: > 10 µM (inactive)
HCC 2998
  GI50: > 10 µM (inactive)
HCT-116
  GI50: > 10 µM (inactive)
HCT-15
  GI50: > 10 µM
HOP-62
  GI50: > 10 µM (inactive)
Hs-578T
  GI50: > 10 µM (inactive)
M14
  GI50: > 10 µM (inactive)
MCF7
  GI50: > 10 µM (inactive)
MDA-MB-435
  GI50: > 10 µM (inactive)
NCI-H23
  GI50: > 10 µM (inactive)
NCI-H460
  GI50: > 10 µM (inactive)
PC-3
  GI50: > 10 µM (inactive)
SF-268
  GI50: > 10 µM (inactive)
SK-MEL-2
  GI50: > 10 µM (inactive)
U-251
  GI50: > 10 µM (inactive)

## CC(=O)Nc1cc2nc3n(c2cc1C)CCC3OC(C)=O (centres undefined)
786-0
  GI50: > 100 µM (inactive)
A498
  GI50: > 100 µM (inactive)
BT-549
  GI50: > 100 µM (inactive)
HCC 2998
  GI50: > 100 µM (inactive)
HCT-116
  GI50: > 100 µM (inactive)
HCT-15
  GI50: > 100 µM
Hs-578T
  GI50: > 100 µM (inactive)
M14
  GI50: > 100 µM (inactive)
MCF7
  GI50: > 100 µM (inactive)
MDA-MB-435
  GI50: > 100 µM (inactive)
NCI-H23
  GI50: > 100 µM (inactive)
NCI-H460
  GI50: > 100 µM (inactive)
PC-3
  GI50: > 100 µM (inactive)
SF-268
  GI50: > 100 µM (inactive)
SK-MEL-2
  GI50: > 100 µM (inactive)
SNB-75
  GI50: > 100 µM (inactive)
SW-620
  GI50: > 100 µM (inactive)
U-251
  GI50: > 100 µM (inactive)
UO-31
  GI50: > 100 µM (inactive)

## COc1ccc(NC(=O)/C(=N\NC(=O)C[n+]2ccccc2)c2c(O)c3ccc(O)cc3oc2=O)c([N+](=O)[O-])c1
786-0
  GI50: > 100 µM (inactive)
A498
  GI50: 75.7 µM (inactive)
BT-549
  GI50: > 100 µM (inactive)
HCC 2998
  GI50: > 100 µM (inactive)
HCT-116
  GI50: > 100 µM (inactive)
HCT-15
  GI50: > 100 µM
Hs-578T
  GI50: > 100 µM (inactive)
M14
  GI50: > 100 µM (inactive)
MCF7
  GI50: > 100 µM (inactive)
MDA-MB-435
  GI50: > 100 µM (inactive)
NCI-H23
  GI50: > 100 µM (inactive)
NCI-H460
  GI50: > 100 µM (inactive)
PC-3
  GI50: > 100 µM (inactive)
SF-268
  GI50: > 100 µM (inactive)
SK-MEL-2
  GI50: > 100 µM (inactive)
SNB-75
  GI50: 92 µM (inactive)
SW-620
  GI50: > 100 µM (inactive)
U-251
  GI50: > 100 µM (inactive)
UO-31
  GI50: > 100 µM (inactive)
